Laboratory results: patent US20230202989A1, “COMPOUNDS” (JANSSEN PHARMACEUTICA NV, priority 2020, published 2023)
Like-named read-outs stand apart in the source and are kept apart here.

Key:
TNF = experiment: PBMC assay: TNF cytokine levels after LPS stimulation (MSD); type: cell-based; details: Homo sapiens, PBMC, 6 h, human PBMCs, 100 ng/ml LPS for 6 hrs
Outline: (§1)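 TNF (EC50) and IL-1β (IC50) were quantified by MSD in supernatants after 6 h stimulation with 100 ng/ml LPS. Thawed healthy-donor PBMCs, 7.5×10^4 per well, were exposed to 1:3 compound dilutions for 30 min beforehand at 37 °C.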

IL-1β = experiment: PBMC assay: inhibition of IL-1β release after LPS stimulation (MSD); type: cell-based; details: human PBMCs, 100 ng/ml LPS for 6 hrs, MSD, 96 well plates, read-out: IL1β IC50
Outline: as §1

| melting point [°C] | EC50 (TNF) [nM] | IC50 (IL-1β; Homo sapiens, PBMC, 6 h) [nM] | IC50 (IL-1β) [nM] | SMILES |
| --- | --- | --- | --- | --- |
| 246.08 | 5580 | 30 |  | CC(C)c1nn(CC(=O)Nc2ccc3nncn3n2)c(=O)c2ccc(C(F)(F)F)cc12 [Final Cpd X2, N-([1,2,4]triazolo[4,3-b]pyridazin-6-yl)-2-(4-isopropyl-1-oxo-6-(trifluoromethyl)phthalazin-2(1H)-yl)acetamide] |
| 294.49 | > 20000 | 172 |  | O=C(Cn1nc(C2CC2)c2cc(C(F)(F)F)ccc2c1=O)Nc1ccc2nncn2c1 [Final Cpd X23] |
| 178.86 | > 20000 | 161 |  | CCN1CC[C@@H](O)[C@@H](NC(=O)Cn2nc(C3CC3)c3cc(C(F)(F)F)ccc3c2=O)C1 [Final Cpd X19] |
| 215.56 | > 20000 | 936 |  | CC(C)c1nn(CC(=O)Nc2ccn3ncnc3c2)c(=O)c2ccc(C(F)(F)F)cc12 [Final Cpd X90] |
| 238.55 | > 20000 | 137 |  | CC(C)c1nn(CC(=O)Nc2ccc3nccn3n2)c(=O)c2ccc(C(F)(F)F)cc12 [Final Cpd X16] |
| 232.18 | > 20000 | 170 |  | CC(C)c1nn(CC(=O)Nc2cc(F)[nH]c(=O)c2)c(=O)c2ccc(C(F)(F)F)cc12 [Final Cpd X22] |
| 295.46 | > 20000 | 114 |  | CC(C)c1nn(CC(=O)Nc2ccc3nc[nH]c3n2)c(=O)c2ccc(C(F)(F)F)cc12 [Final Cpd X13] |
| 222.09 | 15500 | 164 |  | CC(C)c1nn(CC(=O)Nc2ccc3cncn3c2)c(=O)c2ccc(C(F)(F)F)cc12 [Final Cpd X20] |
|  | > 20000 | 196 |  | CO[C@]1(C)C[C@H](NC(=O)Cn2nc(C(C)C)c3cc(Br)ccc3c2=O)C1 [X-1088] |
|  | > 20000 | 8770 |  | CC(C)c1nn(CC(=O)NC2CC(F)(F)C2)c(=O)c2ccc(C(F)(F)F)cc12 [Final Cpd X156] |
|  | > 20000 | 438 |  | O=C(Cn1nc(C(F)F)c2cc(C(F)(F)F)ccc2c1=O)Nc1ccncn1 [Final Cpd X50] |
|  | > 20000 | > 20000 |  | CCc1nn(CC(=O)NC2CC2)c(=O)c2ccccc12 [Final Cpd 14] |
|  | > 20000 |  | 303 | CC(C)c1nn(CC(=O)N[C@H]2C[C@](O)(C(F)(F)F)C2)c(=O)c2ccc(C(F)(F)F)cc12 [Final Cpd X35] |
|  | > 10000 | 1660 |  | CCc1nn(CC(=O)N[C@H]2CC[C@H](O)CC2)c(=O)c2ccc(C3CC3)cc12 [Final Cpd 27] |
|  | > 20000 | 176 |  | CC(C)c1nn(CC(=O)Nc2ccncn2)c(=O)c2ccc(C(F)(F)F)cc12 [Final Cpd 15] |
|  | > 20000 | 15000 |  | CC(C)c1nn(CC(=O)Nc2cc(C#N)c3ncnn3c2)c(=O)c2ccc(C(F)(F)F)cc12 [Final Cpd X162] |
|  | 14100 | 1140 |  | CC(C)c1nn(CC(=O)Nc2ccc3nncn3c2)c(=O)c2ccc(C3CC3(F)F)cc12 (stereo not shown) [X-1069] |
|  | > 20000 | 1410 |  | CC(C)c1nn(CC(=O)N[C@H]2CN(C3COC3)CC[C@H]2O)c(=O)c2ccc(C(F)(F)F)cc12 [Final Cpd X104] |
|  | > 20000 | 1120 |  | CC(C)c1nn(CC(=O)Nc2ccc3nc(C#N)cn3c2)c(=O)c2ccc(C(F)(F)F)cc12 [Final Cpd X97] |
